In patent publication US7226746B1, “Method for screening for anti-amyloidogenic properties and method for treatment of neurodegenerative disease” (The Regents of the University of California, priority 1998, dated 2007):
Values belong to the compound of their own block, whether it stands above or below them.

How the values were obtained:
[1] = target: T1, NACP/α-synuclein (Homo sapiens, UniProt P37840); experiment: Iron-catalyzed oxidative reaction (metal ion plus hydrogen peroxide) aggregation of NACP/α-synuclein, immunoblotting; format: biochemical; design: which encodes full length NACP/α-synuclein 140; 6xHis (cleaved yes); made in house; host or cells: E. coli DH5α
Description: (§1) Prior to experimentation, each of the recombinant proteins need to be desalted by way of passage through PD 10 columns (Pharmacia, Piscataway, N.J.) in water and then adjusted to a final concentration of 5 μM. NACP/α-synuclein protein (1 μl) is incubated in a total volume of 20 μl of buffer containing 20 mM Tris-HCl, pH 7.4. To perform the immuno-blotting analysis, each sample is resolved by SDS-PAGE (15%) and blotted onto nitrocellulose membrane (Schleicher & Schuell, Keene, N.H.). The blotted membrane is blocked with Tris-Buffered saline (TBS; 20 mM Tris-HCl, pH 7.5 and 150 mM NaCl) containing 3% BSA, followed by incubation with anti-C-terminal rabbit polyclonal antibody (1:1000) in TBS containing 1% BSA. The blocked membrane is then incubated with peroxidase-labeled anti-rabbit IgG (Amersham) (1:1000) and visualized using the ECL immuno-blotting system (Amersham, Cleveland, Ohio), the use of which is well known to those in the art.
It was hypothesized that aggregation of NACP/α-synuclein might be linked to the iron-catalyzed oxidative reactions, represented in FIG. 2a, illustrating the hypothesis for the association of NACP/α-synuclein aggregation with iron-catalyzed oxidative reaction (Harber-Weiss reaction). In order to determine if an iron-catalyzed oxidative reaction promotes aggregation of NACP/α-synuclein, the human recombinant form of this molecule was incubated with ferrous ion (100 μM) and hydrogen peroxide. […] Ferrous ion was not included in lanes 8–10. The position of molecular weight markers (kD) are indicated on left). […] Other transition metals were also examined for their effect on NACP/α-synuclein aggregation.

[2] = Thioflavine-S staining of aggregates formed at pH 6.9, 65 C; format: physicochemical, human; details: pH 6.9, 65 C conditions
Description: In order to determine whether the aggregates resulting from aggregation reactions of PROEX-1-β-synuclein 61 and PROEX-1-β-synuclein δ2 display amyloid-like characteristics, 10 μl aliquots of the protein preparations are obtained using the above-described procedures are pipetted onto glass slides and stained with Thioflavine-S. The results are visually analyzed using a confocal microscope, the method of which is well known to those in the art.

[3] = Aggregation assay under high temperature conditions, SDS-PAGE analysis; format: physicochemical, human; details: 20 μM protein, 100 mM sodium acetate, pH 6.9, 65° C.
Description: (§2) In order to test the susceptibility of the newly constructed β-synuclein mutants to aggregation, an aggregation assay can be performed. To do this, 10–20 μM of each of the mutant proteins are incubated in a total volume of 20 μl with a final concentration of 100 mM sodium acetate, pH 6.9. Aggregation can be induced under a variety of conditions, for instance, low pH and high temperature. SDS-PAGE analysis/immunoblotting or Thioflavine-S staining provides means for evaluating the reacted samples, the methods of which are described above and well known to those in the art.
Recombinant proteins were produced using a standard E. coli system and high purity products were generated using SDS-PAGE analysis, seen as FIG. 4.
After 8 hours incubation, the bands corresponding to possible dimers became visible and, after 20 hours incubation, bands corresponding to dimers and higher smears in both the separating and stacking portions of the gels was observed.

[4] = Specificity of ferric ion-induced aggregation: recombinant synuclein proteins treated with ferric ion, immunoblot; format: physicochemical, human; details: 100 μM ferric ion
Description: (§3) The cells are harvested and re-suspended in 50 mM Tris-HCl, pH 8.5, containing protease inhibitors. Following sonication and centrifugation of the re-suspension, the supernatant is applied to a Ni-NTA column and eluted with 20 mM Tris-HCl, pH 8.5, containing 100 mM KCl, 100 mM imidazole, […] v/v glycerol and 10 mM β-mercaptoethanol. The eluted fusion protein is dialyzed against 50 mM Tris-HCl, pH 8.5, cleaved with recombinant TEV protease and again applied to a Ni-NTA column. The recombinant NACP/α-synuclein is isolated in the flow through fractions, pooled and stored at −20° C. until use.
as §1, with “The blocked membrane is then incubated with peroxidase-labeled anti-rabbit IgG (Amersham) (1:1000) and visualized using the ECL immuno-blotting system (Amersham, Cleveland, Ohio), the use of which is well known to those in the art.” left out

[5] = Thioflavine-S staining of ferric ion-induced in vitro aggregates; format: physicochemical, human
Description: In order to determine if iron-induced NACP/α-synuclein aggregates display amyloid-like characteristics, Thioflavine-S staining is performed.
In order to determine whether the ferric-ion induced in vitro aggregates of NACP/α-synuclein display amyloid-like characteristics, Thioflavine-S staining experiments were performed.

[6] = target: T2, human recombinant NACP/α-synuclein 140 (Homo sapiens, UniProt P37840); experiment: Ferric ion-induced aggregation of NACP/α-synuclein 140, immunoblotting analysis; format: biochemical; details: 4 hour incubation, pH 7.4, 37° C.; 0-1 mM ferric ion, concentration dependent
T2 construct: which encodes full length NACP/α-synuclein 140; 6xHis (cleaved yes); made in house; host or cells: E. coli DH5α
Description: as §3
as §1, with “The blocked membrane is then incubated with peroxidase-labeled anti-rabbit IgG (Amersham) (1:1000) and visualized using the ECL immuno-blotting system (Amersham, Cleveland, Ohio), the use of which is well known to those in the art.” left out

[7] = target: T3, β-synuclein δ2 (Homo sapiens, UniProt Q16143, A63V/F71V/H65N/INS70[…]/L66V/S64T/S72E); experiment: Inhibition of high temperature aggregation by Congo red (β-synuclein δ2); format: biochemical; details: 20 μM protein, pH 6.9, 65° C., 20 hours, micromolar concentrations of Congo red
T3 construct: 6xHis (cleaved yes); made in house; host or cells: E. coli
Description: as §2
(§4) Since previous studies have shown that the aggregation of amyloidogenic proteins were to some extent inhibited by Congo red, increasing concentrations of Congo red were added in the present aggregation system. […] As is shown in FIG. 5, the monomer bands were slightly but surely stabilized by treatment with micromolar concentrations of Congo red, which is consistent with other reported studies.

[8] = target: T1, NACP/α-synuclein; experiment: Inhibition of high temperature aggregation by Congo red (NACP/α-synuclein); format: biochemical; design: which encodes full length NACP/α-synuclein 140; 6xHis (cleaved yes); made in house; host or cells: E. coli; details: 20 μM protein, pH 6.9, 65° C., 20 hours, micromolar concentrations of Congo red
Description: as §2, §4

aggregation of NACP/α-synuclein by other transition metals in the presence of hydrogen peroxide ([1]; in the presence of hydrogen peroxide): failed to induce the aggregation
Compound: manganese

Compound: β-synuclein: human recombinant NACP/α-synuclein-related protein with a partially incomplete NAC domain; non-amyloidogenic
Thioflavine-S staining of the protein [2]: negative result
aggregation of the protein under high temperature conditions (SDS-PAGE) [3]: showed no aggregation
aggregation of the protein on treatment with ferric ion [4]: not aggregated
Thioflavine-S reactivity of ferric ion-induced aggregates [5]: not

Compound: OO [hydrogen peroxide]
aggregation of NACP/α-synuclein with hydrogen peroxide in the presence of ferrous ion ([1]; NACP/α-synuclein 1 μM, ferrous ion 100 μM, 1 nM-100 μM H2O2): dose-dependent aggregation
aggregation of NACP/α-synuclein with hydrogen peroxide alone ([1]; no ferrous ion, 10-100 μM H2O2): no remarkable changes

aggregation of NACP/α-synuclein 140 induced by the ion [6]: induced aggregation
Compound: [Fe+3] [ferric ion]

Compound: Nc1c(/N=N/c2ccc(-c3ccc(/N=N/c4cc(S(=O)(=O)O)c5ccccc5c4N)cc3)cc2)cc(S(=O)(=O)O)c2ccccc12 [Congo red]
inhibition of aggregation of β-synuclein δ2 [7]: partly inhibited aggregation
inhibition of aggregation of NACP/α-synuclein [8]: partly inhibited aggregation
